Assay results published in the supplement of paper PMC10307832.

Columns and labels:
Test in all cases: relative viability (nuclei count vs DMSO), 5 days (fraction); higher = more cells survive
[1] = test system: SW 1573
How it was run: (§1)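 Lung cancer cell lines, seeded in 1536-well plates, were treated the following day by pin tool with a single drug or with five library-drug doses (not always all listed) in √10 steps on top of a fixed anchor-drug dose. Cells were fixed and nuclei stained in one step after 5 days, and nuclei were counted. Relative viability is the nuclei count for treated wells divided by that for vehicle wells, reported as medians of duplicate plates.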

[2] = test system: COR-L23
How it was run: as §1

[3] = test system: NCI-H3122
How it was run: as §1

[4] = test system: NCI-H1993
How it was run: as §1

[5] = test system: NCI-H2009
How it was run: as §1

[6] = test system: NCI-H596
How it was run: as §1

[7] = test system: NCI-H727
How it was run: as §1

[8] = test system: HARA
How it was run: as §1

[9] = test system: ABC-1
How it was run: as §1

[10] = test system: A-427
How it was run: as §1

[11] = test system: EMC-BAC-2
How it was run: as §1

[12] = test system: NCI-H2228
How it was run: as §1

[13] = test system: NCI-H1792
How it was run: as §1

[14] = test system: HOP-62
How it was run: as §1

[15] = test system: SK-LU-1
How it was run: as §1

[16] = test system: PC-3 [JPC-3]
How it was run: as §1

[17] = test system: LXF-289
How it was run: as §1

In the case of C=C1C(=O)O[C@@H](CCCCCCCC)[C@@H]1C(=O)O [C-75] + CC(C)C[C@H](NC(=O)[C@H](Cc1ccccc1)NC(=O)c1cnccn1)B(O)O [Bortezomib] (partner 0.002 µM), the relative viability ([1]; first compound 0.08 µM) is reported as 1.05, the relative viability ([1]; first compound 0.253 µM) is reported as 0.949 and the relative viability ([1]; first compound 0.8 µM) is reported as 1.03. The relative viability ([1]; first compound 2.53 µM) was 1.07, the relative viability ([1]; first compound 8 µM) was 0.912 and the relative viability ([2]; first compound 0.08 µM) was 0.953. It also gave a relative viability ([2]; first compound 0.253 µM) of 1.05, a relative viability ([2]; first compound 0.8 µM) of 0.946 and a relative viability ([2]; first compound 2.53 µM) of 0.698. It also gave a relative viability ([2]; first compound 8 µM) of 0.818, a relative viability ([3]; first compound 0.08 µM) of 1.01 and a relative viability ([3]; first compound 0.253 µM) of 0.987. The relative viability ([3]; first compound 0.8 µM) was 0.989, the relative viability ([3]; first compound 8 µM) was 1.04 and the relative viability ([4]; first compound 0.08 µM) was 0.951. It also gave a relative viability ([4]; first compound 0.253 µM) of 1.24, a relative viability ([4]; first compound 0.8 µM) of 1.08 and a relative viability ([4]; first compound 2.53 µM) of 0.54. For the same compound, the relative viability ([4]; first compound 8 µM) was 1.09, the relative viability ([5]; first compound 0.08 µM) was 1.03 and the relative viability ([5]; first compound 0.253 µM) was 1.06. It also gave a relative viability ([5]; first compound 0.8 µM) of 0.927, a relative viability ([5]; first compound 2.53 µM) of 0.826 and a relative viability ([5]; first compound 8 µM) of 0.866. It also gave a relative viability ([6]; first compound 0.08 µM) of 1.18, a relative viability ([6]; first compound 0.253 µM) of 1.18 and a relative viability ([6]; first compound 0.8 µM) of 0.871. The relative viability ([6]; first compound 2.53 µM) was 0.996, the relative viability ([6]; first compound 8 µM) was 0.988 and the relative viability ([7]; first compound 0.08 µM) was 0.773. For the same compound, the relative viability ([7]; first compound 0.253 µM) was 1.32, the relative viability ([7]; first compound 0.8 µM) was 0.614 and the relative viability ([7]; first compound 2.53 µM) was 0.582. The relative viability ([7]; first compound 8 µM) was 0.99, the relative viability ([8]; first compound 0.08 µM) was 1.14 and the relative viability ([8]; first compound 0.253 µM) was 1.22. It also gave a relative viability ([8]; first compound 0.8 µM) of 1.07, a relative viability ([8]; first compound 8 µM) of 1.26 and a relative viability ([9]; first compound 0.08 µM) of 0.295. The relative viability ([9]; first compound 0.253 µM) was 0.314, the relative viability ([9]; first compound 0.8 µM) was 0.373 and the relative viability ([9]; first compound 2.53 µM) was 0.178. The relative viability ([9]; first compound 8 µM) was 0.234, the relative viability ([10]; first compound 0.08 µM) was 1.01 and the relative viability ([10]; first compound 0.253 µM) was 0.988. It also gave a relative viability ([10]; first compound 0.8 µM) of 1.02, a relative viability ([10]; first compound 2.53 µM) of 0.78 and a relative viability ([10]; first compound 8 µM) of 1.12. The relative viability ([11]; first compound 0.08 µM) was 1.1, the relative viability ([11]; first compound 0.253 µM) was 1.05 and the relative viability ([11]; first compound 0.8 µM) was 1.11. The relative viability ([11]; first compound 2.53 µM) was 0.914, the relative viability ([11]; first compound 8 µM) was 1.13 and the relative viability ([12]; first compound 0.08 µM) was 0.836. It also gave a relative viability ([12]; first compound 0.253 µM) of 1.43, a relative viability ([12]; first compound 0.8 µM) of 0.8 and a relative viability ([12]; first compound 2.53 µM) of 0.729. The relative viability ([12]; first compound 8 µM) was 0.746, the relative viability ([13]; first compound 0.08 µM) was 0.979 and the relative viability ([13]; first compound 0.253 µM) was 0.881. For the same compound, the relative viability ([13]; first compound 0.8 µM) was 0.845, the relative viability ([13]; first compound 2.53 µM) was 0.295 and the relative viability ([13]; first compound 8 µM) was 0.886. It also gave a relative viability ([14]; first compound 0.08 µM) of 0.651, a relative viability ([14]; first compound 0.253 µM) of 0.676 and a relative viability ([14]; first compound 0.8 µM) of 0.89. For the same compound, the relative viability ([14]; first compound 2.53 µM) was 0.778, the relative viability ([14]; first compound 8 µM) was 0.916 and the relative viability ([15]; first compound 0.08 µM) was 1.24. It also gave a relative viability ([15]; first compound 0.253 µM) of 1.11, a relative viability ([15]; first compound 0.8 µM) of 0.836 and a relative viability ([15]; first compound 2.53 µM) of 0.847. It also gave a relative viability ([15]; first compound 8 µM) of 0.658, a relative viability ([16]; first compound 0.08 µM) of 0.826 and a relative viability ([16]; first compound 0.253 µM) of 0.839. The relative viability ([16]; first compound 0.8 µM) was 0.826, the relative viability ([16]; first compound 2.53 µM) was 0.581 and the relative viability ([16]; first compound 8 µM) was 0.836. The relative viability ([17]; first compound 0.08 µM) was 0.945, the relative viability ([17]; first compound 0.253 µM) was 0.984 and the relative viability ([17]; first compound 0.8 µM) was 0.889. The relative viability ([17]; first compound 2.53 µM) was 0.951 and the relative viability ([17]; first compound 8 µM) was 0.989.
